Measured values from US20230095912A1, “Composition and Methods for Selective Degradation of Engineered Proteins” (Celgene Corporation, priority 2021, published 2023).

Assays:
tagged TOX = conditions: 1 μM, 16 hours, knock-in Jurkat cells
Excerpt: (§1) The ability to knock degron tags in-frame into genomic loci to allow for compound-mediated modulation of endogenous protein levels was explored. Adeno-associated viral vectors were designed to deliver IKZF1 ZNF2_3-V5 tag-T2A-muThy1.1 tags to be knocked in-frame into the AURA (FIG. […]) or TOX locus (FIG. 20C-20D) in Jurkat cells in both the N- and C-terminal orientations. Jurkats were then electroporated with Cas9/guide RNA ribonucleoproteins. […] Cells were then pelleted, lysed, run on a denaturing protein gel, transferred to a membrane, probed with antibody and visualized with film.

Aurora A = conditions: 1 μM, 16 hours, knock-in Jurkat cells
Excerpt: as §1

[1] = target: CAR tagged with WT ZNF2_3 (Homo sapiens, UniProt Q13422+Q96SW2); conditions: higher Compound A concentrations
Procedure: The IKZF1-ZNF2 degron was further modified to promote improved CAR degradation. Untagged CAR and CAR tagged with the original IKZF1-ZNF2 degrons were tested alongside alternate orientations and combinations of IKZF1 ZNF1, ZNF2, and ZNF3 (FIG. 5A). Each CAR included a CD28 transmembrane domain, a 4-1BB costimulatory domain, and a CD3 (CD3z) signaling domain. The IKZF1 degrons were fused to the C-terminus. […] A lentiviral vector encoding untagged CD19 CAR or CAR tagged with various configurations of IKZF1-ZNFs was transduced into the Jurkat cell line. Transduced cells were first co-cultured with a CD19-expressing K562 target cell line at 37° C. for 7.5 hours, and normalized levels of tdTomato reporter were assessed by flow cytometry.

[2] = tested on: CAR tagged with ZNF2_3 containing a G6N mutation; assay: Compound A titration on Jurkat cells with CAR tagged with ZNF2_3 G6N mutant degron; assay type: cell-based, human; conditions: any dose
Excerpt: The IKZF1 degrons were fused to the C-terminus. See SEQ ID NOs: 53-57. […] This configuration was therefore selected for further testing.

[3] = tested on: WT IKZF1 ZNF2_3-tagged CARs; assay: Erk phosphorylation (pErk) western blot after CAR degradation in Jurkat cells; assay type: cell-based, human; conditions: 1 mM pretreatment 12 hours, co-culture with CD19-expressing K562 30 minutes
Procedure: Abrogation of signaling with CAR degradation was assessed by measuring activation of the downstream MAPK signaling pathway. Jurkat cells were transduced with untagged, WT degron-tagged, or G6N degron-tagged CAR as described above.

ePL-tagged CK1a = target: T1, ePL-tagged CK1a (Homo sapiens, UniProt P48729+Q96SW2); assay: ePL-tagged substrate degradation in MDS-L cells; assay type: cell-based
T1 construct: expressed in transfected cells
Procedure: (§2) DF15 multiple myeloma cells stably expressing ePL-tagged Aiolos, Ikaros, or GSPT1, and MDS-L cells stably expressing ePL-tagged CK1a were generated via lentiviral infection with pLOC-ePL-Aiolos (or Ikaros, GSPT1, or CK1a). […] Compounds were dispensed by an acoustic dispenser (ATS acoustic transfer system from EDC Biosystems) into a 384-well plate in a 10-point dose response curve using 3-fold dilutions starting at 10 μM and going down to […]. Then, 25 μL of media (RPMI-1640+10% heat inactivated FBS+25 mM Hepes+1 mM Na pyruvate+1× NEAA+1×Pen Strep Glutamine) containing 5000 of DF15 or MSD-L cells was dispensed per well. Assay plates were incubated at 37° C. with 5% CO2 for 4 hours except 20 hours for GSPT1. After incubation, 25 μL of the InCELL Hunter detection reagent working solution (DiscoverX, catalogue no. 96-0002, Fremont, Calif.) was added to each well and incubated at room temperature for 60 min protected from light. After 60 min, luminescence was read on an Envision or PHERAstar luminescence reader.
(§3) To determine the EC50 value of a compound for the degradation of a given substrate (concentration of compound that achieves half the maximum degradation observed), a four-parameter logistic model (sigmoidal dose—response model) (FIT=(A+{(B−A)/1+[(C/x)D]})) where C is the inflection point (EC50), D is the […], and A and B are the low and high limits of the fit, respectively) was used. All substrate degradation curves were processed and evaluated using ActivityBase (IDBS), a data analysis software package. Ymin is minimum percent protein remaining.

[4] = target: IKZF1 ZNF2-tagged CD19 CAR (Homo sapiens, UniProt Q13422+Q96SW2); conditions: jurkat, 1440 min
[5] = target: IKZF1 ZNF2_3 tagged CD19 CAR (Homo sapiens, UniProt Q13422+Q96SW2); conditions: 100 nM pre-treatment 48 hours, co-culture with CD19-expressing K562 8 hours
Procedure: Function of IKZF1 ZNF2 tagged CD19 CAR T cells (FIG. 2, ZNF2 amino acid sequence of SEQ ID NO: 15) was evaluated in a reporter assay, in which Jurkat cells have been engineered to express tdTomato when the Nur77 gene, associated with CAR and TCR activation, is actively transcribed (FIG. 3). Lentiviral vectors encoding ZNF-tagged CD19 CAR, untagged CD19 CAR, or an untagged BCMA CAR negative control were transduced into the Jurkat reporter cell line. Transduced cells were then co-cultured with a CD19-expressing K562 target cell line at 37° C. Levels of tdTomato, both in the form of mean fluorescence intensity (MFI) and the overall percent of positive cells, were assessed by flow cytometry every 2 hours for 12 hours.
A lentiviral vector encoding ZNF2_3 tagged or untagged CD19 CAR (see Example 2) was transduced into the reporter cell line. […] Levels of tdTomato in the form of mean fluorescence intensity (MFI) (FIG. 6B) and the overall percent of positive cells, as well as normalized CAR levels (FIG. 6C), were assessed by flow cytometry (FIG. 6A).

ePL-tagged GSPT1 = target: T2, ePL-tagged GSPT1 (Homo sapiens, UniProt P15170+Q96SW2); assay: ePL-tagged substrate degradation in DF15 multiple myeloma cells; assay type: cell-based; conditions: read-out: EC50; GSPT1; DF15 cells, 20 hours
T2 construct: expressed in transfected cells
Procedure: as §2, §3

ePL-tagged Ikaros = target: T3, ePL-tagged Ikaros (Homo sapiens, UniProt Q13422+Q96SW2); assay: as above; assay type: cell-based; conditions: read-out: EC50; Ikaros; DF15 cells, 4 hours
T3 construct: expressed in transfected cells
Procedure: as §2, §3

T1 sequence (P48729 whole entry): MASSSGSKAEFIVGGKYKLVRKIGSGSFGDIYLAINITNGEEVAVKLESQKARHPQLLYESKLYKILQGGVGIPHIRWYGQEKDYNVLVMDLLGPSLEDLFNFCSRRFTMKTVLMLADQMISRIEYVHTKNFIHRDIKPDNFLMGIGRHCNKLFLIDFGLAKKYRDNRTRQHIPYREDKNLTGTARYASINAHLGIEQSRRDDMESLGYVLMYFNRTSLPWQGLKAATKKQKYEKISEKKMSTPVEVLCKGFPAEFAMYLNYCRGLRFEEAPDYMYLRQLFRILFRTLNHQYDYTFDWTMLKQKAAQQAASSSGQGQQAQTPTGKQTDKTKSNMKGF
T1 sequence (Q96SW2 whole entry): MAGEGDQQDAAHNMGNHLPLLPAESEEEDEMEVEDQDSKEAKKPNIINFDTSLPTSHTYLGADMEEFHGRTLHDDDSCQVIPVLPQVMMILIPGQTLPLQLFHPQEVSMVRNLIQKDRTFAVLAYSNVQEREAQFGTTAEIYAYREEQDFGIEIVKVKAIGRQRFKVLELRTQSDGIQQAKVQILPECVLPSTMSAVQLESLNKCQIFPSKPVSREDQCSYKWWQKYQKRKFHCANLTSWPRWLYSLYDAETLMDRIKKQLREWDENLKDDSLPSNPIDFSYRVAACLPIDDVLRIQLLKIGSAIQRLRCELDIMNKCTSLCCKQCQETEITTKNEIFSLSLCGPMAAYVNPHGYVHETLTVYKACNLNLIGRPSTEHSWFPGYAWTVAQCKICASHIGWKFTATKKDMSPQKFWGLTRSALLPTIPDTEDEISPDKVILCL
T1 sequence (Q16531 whole entry partner): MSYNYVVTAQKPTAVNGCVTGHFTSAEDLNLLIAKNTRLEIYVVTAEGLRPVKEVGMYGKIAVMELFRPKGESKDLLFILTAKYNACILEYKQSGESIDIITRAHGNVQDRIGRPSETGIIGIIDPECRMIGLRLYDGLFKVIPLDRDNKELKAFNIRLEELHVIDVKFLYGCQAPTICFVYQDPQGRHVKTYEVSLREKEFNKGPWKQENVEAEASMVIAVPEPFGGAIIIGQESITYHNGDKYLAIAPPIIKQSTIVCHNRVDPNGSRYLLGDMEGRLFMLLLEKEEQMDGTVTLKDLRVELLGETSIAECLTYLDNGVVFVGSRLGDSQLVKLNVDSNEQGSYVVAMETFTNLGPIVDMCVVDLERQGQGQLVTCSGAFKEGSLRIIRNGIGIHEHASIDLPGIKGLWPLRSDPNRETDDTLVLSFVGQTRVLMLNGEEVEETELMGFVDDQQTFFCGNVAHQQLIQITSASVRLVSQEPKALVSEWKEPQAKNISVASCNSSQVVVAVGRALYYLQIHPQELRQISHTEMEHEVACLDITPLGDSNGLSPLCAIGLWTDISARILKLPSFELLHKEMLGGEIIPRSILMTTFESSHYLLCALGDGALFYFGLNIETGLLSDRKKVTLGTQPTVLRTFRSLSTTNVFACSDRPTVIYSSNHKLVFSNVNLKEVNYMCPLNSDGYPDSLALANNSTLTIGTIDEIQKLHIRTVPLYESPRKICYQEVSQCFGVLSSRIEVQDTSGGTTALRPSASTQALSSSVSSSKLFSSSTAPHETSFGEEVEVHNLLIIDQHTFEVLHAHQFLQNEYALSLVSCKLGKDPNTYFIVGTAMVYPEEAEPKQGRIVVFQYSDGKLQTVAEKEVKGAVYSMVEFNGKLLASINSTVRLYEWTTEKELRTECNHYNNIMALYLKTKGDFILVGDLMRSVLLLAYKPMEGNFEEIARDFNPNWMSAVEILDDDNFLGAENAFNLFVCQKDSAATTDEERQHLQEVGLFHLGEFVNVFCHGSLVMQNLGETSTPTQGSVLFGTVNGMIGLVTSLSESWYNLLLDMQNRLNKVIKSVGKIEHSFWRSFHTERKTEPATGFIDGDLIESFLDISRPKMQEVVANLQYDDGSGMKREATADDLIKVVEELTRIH
Chain of IKZF1 ZNF2-tagged CD19 CAR (Q13422 other isoform, or with tags, fused parts or gaps): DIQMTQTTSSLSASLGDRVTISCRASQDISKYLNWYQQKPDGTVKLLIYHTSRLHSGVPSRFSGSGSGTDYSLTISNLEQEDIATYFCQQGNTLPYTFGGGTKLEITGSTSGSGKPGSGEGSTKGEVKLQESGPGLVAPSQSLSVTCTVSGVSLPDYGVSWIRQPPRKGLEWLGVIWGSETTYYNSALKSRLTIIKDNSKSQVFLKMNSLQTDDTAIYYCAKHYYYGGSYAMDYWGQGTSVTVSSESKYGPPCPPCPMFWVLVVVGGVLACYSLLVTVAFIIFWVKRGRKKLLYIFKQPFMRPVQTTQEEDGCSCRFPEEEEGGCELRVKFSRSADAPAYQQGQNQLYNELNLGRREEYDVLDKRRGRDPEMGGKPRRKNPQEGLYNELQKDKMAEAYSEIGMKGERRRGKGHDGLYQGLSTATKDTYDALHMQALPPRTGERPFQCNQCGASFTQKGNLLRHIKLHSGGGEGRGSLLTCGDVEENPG
Chain of IKZF1 ZNF2-tagged CD19 CAR (Q16531 whole entry, further chain): as the sequence (Q16531 whole entry partner) above
Chain of IKZF1 ZNF2-tagged CD19 CAR (Q96SW2 whole entry): as the sequence (Q96SW2 whole entry) above
T2 sequence (P15170 whole entry): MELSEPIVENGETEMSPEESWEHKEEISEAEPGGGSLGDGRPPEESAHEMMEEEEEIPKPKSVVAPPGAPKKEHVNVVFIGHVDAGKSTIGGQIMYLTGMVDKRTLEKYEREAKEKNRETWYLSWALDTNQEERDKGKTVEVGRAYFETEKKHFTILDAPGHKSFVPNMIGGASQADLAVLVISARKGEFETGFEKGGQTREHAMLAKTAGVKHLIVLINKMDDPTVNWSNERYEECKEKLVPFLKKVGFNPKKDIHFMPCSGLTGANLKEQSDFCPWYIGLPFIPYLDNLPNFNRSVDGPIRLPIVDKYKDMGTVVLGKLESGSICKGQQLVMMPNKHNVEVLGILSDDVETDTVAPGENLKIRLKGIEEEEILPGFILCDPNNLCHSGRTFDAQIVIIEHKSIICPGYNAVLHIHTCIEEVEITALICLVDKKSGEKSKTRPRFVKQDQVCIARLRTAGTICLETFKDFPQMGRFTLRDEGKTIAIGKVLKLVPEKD
T2 sequence (Q96SW2 whole entry): as the sequence (Q96SW2 whole entry) above
T2 sequence (Q16531 whole entry partner): as the sequence (Q16531 whole entry partner) above
Chain of IKZF1 ZNF2_3 tagged CD19 CAR (Q96SW2 whole entry): as the sequence (Q96SW2 whole entry) above
Chain of IKZF1 ZNF2_3 tagged CD19 CAR (Q13422 other isoform, or with tags, fused parts or gaps): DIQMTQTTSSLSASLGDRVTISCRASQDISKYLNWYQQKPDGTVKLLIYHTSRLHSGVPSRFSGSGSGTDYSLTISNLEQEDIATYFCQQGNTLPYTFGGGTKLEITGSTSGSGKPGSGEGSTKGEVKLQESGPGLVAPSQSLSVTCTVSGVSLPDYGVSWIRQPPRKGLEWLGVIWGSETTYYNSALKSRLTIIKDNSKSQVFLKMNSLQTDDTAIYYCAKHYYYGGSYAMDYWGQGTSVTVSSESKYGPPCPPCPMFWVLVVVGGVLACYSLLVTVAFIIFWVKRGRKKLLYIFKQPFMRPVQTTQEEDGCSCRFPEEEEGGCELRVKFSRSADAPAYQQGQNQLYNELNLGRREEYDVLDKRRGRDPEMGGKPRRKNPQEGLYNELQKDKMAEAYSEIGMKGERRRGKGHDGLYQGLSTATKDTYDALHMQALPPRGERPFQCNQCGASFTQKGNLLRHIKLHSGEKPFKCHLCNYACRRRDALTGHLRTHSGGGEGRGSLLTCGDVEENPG
Chain of IKZF1 ZNF2_3 tagged CD19 CAR (Q16531 whole entry, further chain): as the sequence (Q16531 whole entry partner) above
T3 sequence (Q13422 whole entry): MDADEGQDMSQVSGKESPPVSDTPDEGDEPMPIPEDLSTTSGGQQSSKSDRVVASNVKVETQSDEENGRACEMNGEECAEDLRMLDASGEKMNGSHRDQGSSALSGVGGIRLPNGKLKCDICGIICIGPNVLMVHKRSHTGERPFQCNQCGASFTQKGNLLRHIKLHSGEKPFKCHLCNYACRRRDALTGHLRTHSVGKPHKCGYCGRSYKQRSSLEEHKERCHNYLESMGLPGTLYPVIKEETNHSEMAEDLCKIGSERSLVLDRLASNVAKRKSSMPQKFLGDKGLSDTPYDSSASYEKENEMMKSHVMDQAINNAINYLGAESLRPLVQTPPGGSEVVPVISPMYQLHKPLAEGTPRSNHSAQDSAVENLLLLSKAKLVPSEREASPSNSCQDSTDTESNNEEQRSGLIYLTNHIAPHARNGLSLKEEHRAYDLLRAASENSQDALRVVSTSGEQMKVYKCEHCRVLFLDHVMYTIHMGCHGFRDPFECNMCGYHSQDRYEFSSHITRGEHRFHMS
T3 sequence (Q96SW2 whole entry): as the sequence (Q96SW2 whole entry) above
T3 sequence (Q16531 whole entry partner): as the sequence (Q16531 whole entry partner) above
Chain of CAR tagged with WT ZNF2_3 (Q96SW2 whole entry): as the sequence (Q96SW2 whole entry) above
Chain of CAR tagged with WT ZNF2_3 (Q16531 whole entry, further chain): as the sequence (Q16531 whole entry partner) above

With `O=C1CCC(N2Cc3c(OCc4ccc(CN5CCN(c6ccc(F)cc6F)CC5)cc4)cccc3C2=O)C(=O)N1` (centres unmarked) [Compound A] the “tagged TOX levels (western blot)” value (tagged TOX) was “decreased”, the “Aurora A levels (western blot)” value (Aurora A) was “decreased” and the “CAR degradation (WT ZNF2_3 degron)” value [1] was “deep CAR degradation”. The “response of G6N mutant tagged CAR” value [2] was “failed to respond”, the “Erk phosphorylation (pErk)” value [3] was “attenuated” and the “degradation of CK1a (in words)” value (ePL-tagged CK1a) was “degraded CK1a to a significant extent”. The DC50 (ePL-tagged CK1a; read-out: EC50, CK1a, MDS-L cells, 4 hours) was 190 nM, the CAR degradation [4] was about 55% and the “inhibition of CAR activity” value [5] was “strongly inhibit CAR activity”. It also gave a DC50 (ePL-tagged GSPT1) of 39 nM and a DC50 (ePL-tagged Ikaros) of 22 nM.
